Data on 98 compounds can be found in ChEMBL document CHEMBL3507680, “University of Dundee, Gates Library screen for HepG2 cell viability”.

The series in a line: Human HepG2 cell viability assay in 384 well format. It is filed as toxicity, cell-based. On the set-up: dose 125 nL, time 70.5 hour; concentration not given beside the values. To be noted: HepG2 cells, read-out: Inhibition.
Regarding `CCCOc1cccc(NS(=O)(=O)c2cc(C(=O)O)cs2)c1`, the cytotoxicity at 70.5 h is 4.51%.

Turning to `CN(C)c1cc(C(=O)N2CCCCC2Cn2cccn2)ccn1` (stereo not drawn), the cytotoxicity at 70.5 h was -1.9%.

Regarding `CSc1ccc(C2CC(=O)Nc3c2c(=O)[nH]n3C(C)C)cc1` (stereo not drawn), the cytotoxicity at 70.5 h is -9.28%.

In the case of `CCN(C)c1ncnc2c1CCN(C(=O)c1ccno1)CC2`, the cytotoxicity at 70.5 h was -7.5%.

Consider `Cc1ccc(C(=O)NC(C)CN2CCCC2=O)c(=O)[nH]1` (stereo not drawn), for which the cytotoxicity at 70.5 h is -5.25%.

For the compound `CN(C)C(=O)CN1CCCC1c1nc(N)ncc1-c1ccc(F)cc1` (stereo not drawn), the cytotoxicity at 70.5 h came out at 2.44%.

On to `NC(=O)C1CCN(c2nc3nccc(-c4cccnc4)c3c(=O)[nH]2)CC1`, for which the cytotoxicity at 70.5 h is -2.94%.

Take `Cc1nn(CC(=O)NCC2(C(N)=O)CCOCC2)c(C)c1Cl`: the cytotoxicity at 70.5 h is -8.87%.

Consider `COc1cncc(-n2nc(C)c(CC(C)=O)c2C)c1`, for which the cytotoxicity at 70.5 h is 0.266%.

Consider `CN(C)c1ccc2c(c1)CN(C(=O)c1ccnnc1)C2c1cnco1` (stereo not drawn), for which the cytotoxicity at 70.5 h is -13.8%.

For the compound `Cc1nn(C)c2c(N3CCC(C)CC3)nc(C3CC3)nc12`, the cytotoxicity at 70.5 h was -11.4%.

Consider `O=C1CCCN1CCCN1CCCCC1Cn1cncn1` (stereo not drawn), for which the cytotoxicity at 70.5 h was -5.51%.

Turning to `Cc1ccc(-c2nn3c(nc2=O)-c2ccccc2NC3C(=O)O)cc1C` (stereo not drawn), the cytotoxicity at 70.5 h is 3.4%.

As to `Cc1cc(CNC(=O)c2cc(C(C)C)n(C)n2)ccc1S(C)(=O)=O`, the cytotoxicity at 70.5 h is -8.39%.

Turning to `Cc1cnc(N2CC[C@@]3(O)CCCC[C@H]3C2)nc1-c1ccnn1C`, the cytotoxicity at 70.5 h was -7.52%.

As for `O=c1[nH]c(COc2ccccc2Cl)nc2c1CCNC2`, the cytotoxicity at 70.5 h is -4.85%.

For `O=C(c1ccc[nH]1)N1CCCn2cnc(COCC3CC3)c2C1`, the cytotoxicity at 70.5 h was -9.86%.

Take `Cc1ccc(CN2CCC[C@]3(C(=O)O)CN(C)C[C@@H]3C2)s1`: the cytotoxicity at 70.5 h was -14.3%.

For `CC(C)CNS(=O)(=O)c1ccc(C(=O)N(C)CCc2cn[nH]c2)cc1`, the cytotoxicity at 70.5 h is -8.39%.

Turning to `O=C1CN(CCCNC(=O)Nc2cccc(Cl)c2F)CCN1`, the cytotoxicity at 70.5 h is -2.99%.

As for `Cc1sc2c(C3CCCN(S(C)(=O)=O)C3)nc(C)n2c1C` (stereo not drawn), the cytotoxicity at 70.5 h was -9.83%.

On to `COc1cc(C2SCC(=O)Nc3[nH]ncc32)c(OC)c2c1OCO2` (stereo not drawn), for which the cytotoxicity at 70.5 h is -12.7%.

On to `Cc1cccc(-c2nc3cc(S(=O)(=O)N4CCCC4)ccc3n2C)n1`, for which the cytotoxicity at 70.5 h was -10.3%.

For the compound `CC(C)c1noc(CCCC(=O)N2CCN(C)CC2c2ccccc2)n1` (stereo not drawn), the cytotoxicity at 70.5 h is -8.67%.

Take `CCn1cc(NC(=O)C2CCN(Cc3nc(C(C)C)no3)CC2)cn1`: the cytotoxicity at 70.5 h is -6.8%.

Turning to `Cn1c(=O)oc2ccc(NC(=O)N3CCSCC3)cc21`, the cytotoxicity at 70.5 h is -18.1%.

As for `CN(C)C1CCN(C(=O)c2n[nH]c3c2CCN(CC2CCC2)C3)CC1`, the cytotoxicity at 70.5 h is 14.2%.

As to `Cn1cc(Br)c(=O)c(NS(=O)(=O)c2cc(F)ccc2Cl)c1`, the cytotoxicity at 70.5 h was 6.1%.

Consider `Cc1cnn(C2(C(=O)O)CCN(Cc3oc4ccccc4c3C)CC2)c1`, for which the cytotoxicity at 70.5 h is -8.33%.

As for `Cn1cc(NC(=O)c2cc[nH]n2)cc(Cl)c1=O`, the cytotoxicity at 70.5 h was -5.18%.

On to `COc1ccc(CNCc2ccnc(N3CCOCC3)c2)cc1OC`, for which the cytotoxicity at 70.5 h was -10.1%.

With `O=C(CN1CSCC1=O)NCC1CCN(c2ccccc2)C1` (stereo not drawn), the cytotoxicity at 70.5 h is -8.38%.

`Cc1cccc(-c2noc(C)c2C(=O)NC2CCCOC2)c1` (stereo not drawn): the cytotoxicity at 70.5 h is -10.9%.

For `O=C(CN1C(=O)CCC1=O)NCC1(O)CCc2ccccc21` (stereo not drawn), the cytotoxicity at 70.5 h came out at 1.38%.

Turning to `COCCO[C@H]1CCN(Cc2cccs2)[C@H]1Cc1cccnc1`, the cytotoxicity at 70.5 h was -8.35%.

As for `Cc1ccc(Nc2nccc(C3CCN(C(=O)CN)C3)n2)nc1` (stereo not drawn), the cytotoxicity at 70.5 h was -5.12%.

For the compound `c1cncc(COCc2nnc3n2CCN(Cc2ccsc2)C3)c1`, the cytotoxicity at 70.5 h was -2.47%.

For the compound `Cc1n[nH]cc1CNC1(c2ccc(Br)cc2)CC1`, the cytotoxicity at 70.5 h was -0.84%.

Regarding `O=C(Cc1ccc(O)c(F)c1)N1CCN(CC2CC2)[C@@H]2CS(=O)(=O)C[C@@H]21`, the cytotoxicity at 70.5 h is -6.03%.

With `O=C([C@H]1C[C@@H]2[C@@H](C1)OCCN2CC1CC1)N1CCCC1`, the cytotoxicity at 70.5 h was -1.83%.

As for `CCc1nn(C)c(CC)c1CNC(=O)Nc1cccc([S+](C)[O-])c1` (stereo not drawn), the cytotoxicity at 70.5 h was found to be 14.6%.

`CCn1nccc1CN(C)C(=O)Cn1nc(C)cc1C`: the cytotoxicity at 70.5 h is 16.1%.

As to `CC(C)Nc1nc(N2CCCC2)nc2c1CCN(S(C)(=O)=O)CC2`, the cytotoxicity at 70.5 h was -10.7%.

In the case of `CCC(CN1CCCC1)n1cncc1-c1cnn(-c2ccc(F)cc2)c1` (stereo not drawn), the cytotoxicity at 70.5 h was -5.95%.

As for `O=c1cc(CN(CCO)C2CC2)nc2ccc(Br)cn12`, the cytotoxicity at 70.5 h is -4.99%.

For the compound `Cc1ccc(CNc2ccc(C(=O)N3CCNC(=O)C3)cn2)cc1`, the cytotoxicity at 70.5 h was found to be 4.12%.

Turning to `O=C(NCC1CC1)C1=NOC2(CCN(Cc3ccsc3)C2)C1` (stereo not drawn), the cytotoxicity at 70.5 h was -7.31%.

Take `Cc1ccc(S(=O)(=O)Nc2ccc(-n3cccc3C(=O)O)c(C)c2)cc1`: the cytotoxicity at 70.5 h is -6.38%.

For `CN1CCN(Cc2cnc3n2CCN(C(=O)c2ccccn2)C3)CC1`, the cytotoxicity at 70.5 h was -12.3%.

`O=C1Nc2ccccc2CN(CC2CCCC2)C12CCNC2` (stereo not drawn): the cytotoxicity at 70.5 h was -2.12%.

Take `CN(C)Cc1ccnc(C2CN(Cc3nccs3)CCO2)n1` (stereo not drawn): the cytotoxicity at 70.5 h was 1.69%.

For `O=C(CCO)N1CC[C@@H]2CN(C(=O)c3ccco3)CCO[C@@H]2C1`, the cytotoxicity at 70.5 h is -4.78%.

As to `COC(=O)c1ccc(NC(C)c2ccc3c(c2)CC(=O)N3)nn1` (stereo not drawn), the cytotoxicity at 70.5 h is -10.3%.

As to `O=C1CCC2(CCCN(C(=O)c3cscn3)C2)CN1CCc1c[nH]cn1` (stereo not drawn), the cytotoxicity at 70.5 h is -9.29%.

For the compound `O=C(NC[C@H]1OC[C@@H](NCc2ccccn2)[C@@H]1O)c1ccncc1`, the cytotoxicity at 70.5 h is -1.84%.

Consider `Cn1ncnc1-c1ccnc(NCCCc2ccncc2)n1`, for which the cytotoxicity at 70.5 h was -17.5%.

As for `COc1cccc(OC)c1-c1ccnc2cc(CC(=O)N(C)C)nn12`, the cytotoxicity at 70.5 h was -11.5%.

As for `O=C(NCCc1csc(-c2cnccn2)n1)c1cnn[nH]1`, the cytotoxicity at 70.5 h was determined as 21.3%.

On to `O=C1CC2(CCN(Cc3ccc(-c4ccn[nH]4)s3)CC2)CN1`, for which the cytotoxicity at 70.5 h was -13.8%.

Regarding `COc1ccc(NC(C)C(=O)N2CCN(c3ncccn3)CC2)cn1` (stereo not drawn), the cytotoxicity at 70.5 h turned out to be 2.09%.

Take `O=C(N1CCOCC1)N1CCC(Nc2ccncn2)CC1`: the cytotoxicity at 70.5 h was -7.28%.

For `Cc1n[nH]cc1CNc1ccc2c(c1)N(C(=O)OC(C)(C)C)CCC2`, the cytotoxicity at 70.5 h is -5.44%.

In the case of `Cc1ccc2c(c1)OC(C)CN2C(=O)CCc1cscn1` (stereo not drawn), the cytotoxicity at 70.5 h stood at 0.46%.

On to `O=C(c1cc(Cl)ccc1F)N1CCCC1Cn1cccn1` (stereo not drawn), for which the cytotoxicity at 70.5 h came to 22.7%.

`CCN1C[C@H]2C3(CCN(S(=O)(=O)CC)CC3)CC[C@@]2(C(=O)N(C)C)C1`: the cytotoxicity at 70.5 h is -4.85%.

Regarding `NC(=O)N1CCc2cc(C(=O)O)c(-c3ccsc3)nc2CC1`, the cytotoxicity at 70.5 h was -6.4%.

`CCCc1ncc(C(=O)c2ccc(OC)cc2)n1C`: the cytotoxicity at 70.5 h was 14.7%.

Consider `CCCC(NC(=O)c1ccc(OC)cc1C)c1nnn[nH]1` (stereo not drawn), for which the cytotoxicity at 70.5 h stood at 8.62%.

Consider `CCCOCC1CCN(C(=O)c2cnc(-c3cccnc3)nc2O)C1` (stereo not drawn), for which the cytotoxicity at 70.5 h was -6.25%.

In the case of `Cc1c(C(=O)NCCC(=O)N2CCCC2)oc2c(F)cccc12`, the cytotoxicity at 70.5 h is -6.53%.

With `O=C(C1CCOCC1)N1CCN(CC2CC2)c2ncccc2C1`, the cytotoxicity at 70.5 h is -14.2%.

On to `Cc1nccc(N[C@H]2CN(CCC(=O)NC3CCCC3)C[C@@H]2C2CC2)n1`, for which the cytotoxicity at 70.5 h was -2.83%.

Take `Cc1ccc(-c2nnc(CN3CCOC(Cn4cncn4)C3)o2)cc1` (stereo not drawn): the cytotoxicity at 70.5 h was -5.3%.

Regarding `Cc1cnn(CC2CCCCN2CCn2cncn2)c1` (stereo not drawn), the cytotoxicity at 70.5 h worked out at 1.52%.

On to `COCC1c2nnn(C)c2CCN1C(=O)Cc1ccccn1` (stereo not drawn), for which the cytotoxicity at 70.5 h is -3.79%.

As to `CCCN1CCC(CC(=O)NCc2cc(C)nn2C)CC1`, the cytotoxicity at 70.5 h is -7.34%.

With `O=C(Nc1ccccc1OCCc1ccccn1)N1CCOCC(O)C1` (stereo not drawn), the cytotoxicity at 70.5 h is -8.87%.

Regarding `Cc1cccc2c1N(C)C(=O)C21CC(=O)Nc2c1cnn2C(C)(C)C` (stereo not drawn), the cytotoxicity at 70.5 h was -18.4%.

Take `Cc1ccc(NC2CCN(C(=O)Cn3nc(C)cc3C)CC2)nn1`: the cytotoxicity at 70.5 h is -6.3%.

Regarding `O=C(NCc1ccc(Br)cc1F)C1(O)CCSCC1`, the cytotoxicity at 70.5 h is -2.81%.

In the case of `CC(CNCc1ccc2c(c1)n(C)c(=O)n2C)Oc1ccccn1` (stereo not drawn), the cytotoxicity at 70.5 h was -24.7%.

Turning to `CC(=O)N1CCN(C(=O)C(C)n2cncn2)CC1` (stereo not drawn), the cytotoxicity at 70.5 h turned out to be 5.31%.

On to `Cc1cc(NC2CC3(CCN(Cc4csc(C)n4)C3)C2)ncn1` (stereo not drawn), for which the cytotoxicity at 70.5 h was -9.59%.

As for `CN(C)CCOCC1CN(C(=O)c2ccnnc2)Cc2ccnn2C1` (stereo not drawn), the cytotoxicity at 70.5 h was -14%.

Turning to `Cc1cccn2cc(CN3CCCC(c4ccn[nH]4)C3)nc12` (stereo not drawn), the cytotoxicity at 70.5 h was 0.654%.

For `CCC(C)N(Cc1cccnc1)Cc1ccccc1Cn1cccn1` (stereo not drawn), the cytotoxicity at 70.5 h is -9.31%.

As for `CNC(=O)c1cccnc1NCCOc1ccccc1`, the cytotoxicity at 70.5 h was -0.952%.

Consider `Cc1noc(C)c1CN1CCN(Cc2nc(C3CC3)no2)CC1`, for which the cytotoxicity at 70.5 h was -12.8%.

On to `CN(C)C(C(=O)N1CC(Oc2ccccc2F)C1)c1ccccc1F` (stereo not drawn), for which the cytotoxicity at 70.5 h came out at 12.3%.

For `CN(C)C(=O)c1ccc2c(c1)N(C)C(CC(=O)NCCC(C)(C)C)CO2` (stereo not drawn), the cytotoxicity at 70.5 h is -5.81%.

In the case of `O=C(NC1CC1)[C@@H]1CCO[C@@H]2CCN(CC3CCC3)C[C@@H]21`, the cytotoxicity at 70.5 h was -11.4%.

For the compound `Cc1ccc(S(=O)(=O)N2CC(C)Oc3ncccc32)c(F)c1` (stereo not drawn), the cytotoxicity at 70.5 h was -7.65%.

As for `O=S(=O)(C1CC1)N1CC[C@H](OCC2CC2)[C@@H]1Cc1cccnc1`, the cytotoxicity at 70.5 h is -4.98%.

As to `COc1ccccc1C(=O)N1CC(=O)N(C2CCCCC2)CC(O)C1` (stereo not drawn), the cytotoxicity at 70.5 h amounted to 15.8%.

With `CCC(CC#N)n1ccc(C(F)(F)F)n1` (stereo not drawn), the cytotoxicity at 70.5 h was 22.2%.

For `O=C(CN1CCOCS1(=O)=O)NCCc1ccc(Cl)cc1`, the cytotoxicity at 70.5 h was -9.99%.

For `COc1ccc(Cc2ncc3c(n2)CN(C(=O)C(C)(C)OC)C3)cc1`, the cytotoxicity at 70.5 h was -6.62%.

As for `Fc1ccc(-c2cnc(CNC3CCc4ncnn4C3)o2)cc1` (stereo not drawn), the cytotoxicity at 70.5 h is -8.23%.
